Several values for one entry are separate records, joined by “and”; a condition that tells them apart may be missing. Equal values may be shown once.
What was measured:
[1] = system: subjects with diabetic or idiopathic gastroparesis; assay: DIGEST I: responder analysis of GRS Summary Scores;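 further: weekly responder means a clinically relevant symptom change versus baseline, and weeks with missing data (dropouts) count as non-response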
Description: A weekly responder was defined as a subject who experienced a clinically relevant change in symptoms from baseline.
Given these observations, a responder is any subject being a weekly responder for at least 6 of 12 weeks and at least 3 of the last 4 weeks of treatment. Subjects with missing data in the week (drop out) were defined as a non-responder for that week.

[2] = system: subjects with diabetic or idiopathic gastroparesis; assay: DIGEST I: GRS Summary Score 2 (Factor 2: nausea and vomiting); assay type: in vivo, human
Description: A daily proprietary patient reported outcome (PRO) tool was used to assess GP symptoms, the Gastroparesis Rating Scale (GRS), developed according to the current FDA PRO guidance. The GRS covers the following cardinal symptom domains: (1) nausea, (2) vomiting, (3) postprandial fullness/early satiety, (4) bloating, (5) upper abdominal pain, (6) gastric reflux/burning, and (7) bowel movements. The GRS symptom domains may be also categorized or grouped into Factor 1 (fullness, early satiety, bloating, upper abdominal pain, and epigastric burning) and Factor 2 (nausea and vomiting).
GRS Factor 1 (also Summary Score 1) comprised fullness/early satiety, bloating, upper abdominal pain, and epigastric burning domains, whereas GRS Factor 2 (also Summary Score 2) comprised nausea and vomiting domains.
After the psychometric evaluation the GRS was summarized using two summary scores: Summary Score 1 combined the fullness/early satiety, bloating, upper abdominal pain, and epigastric burning domains and Summary Score 2 combined the nausea and vomiting domains.

[3] = 5 mg/day, responders for at least 6 of 12 weeks, ITT
[4] = 15 mg/day, at least 6 of 12 weeks and at least 3 weeks of Weeks 9-12, ITT
[5] = 15 mg/day, diabetic gastroparesis population
[6] = 15 mg/day, idiopathic gastroparesis population
[7] = 15 mg/day, responders for at least 6 of 12 weeks, ITT
[8] = 30 mg/day, at least 6 of 12 weeks and at least 3 weeks of Weeks 9-12, ITT
[9] = 30 mg/day, diabetic gastroparesis population
[10] = 30 mg/day, idiopathic gastroparesis population
[11] = 30 mg/day, responders for at least 6 of 12 weeks, ITT
[12] = 5 mg/day, Week 4, diabetic gastroparesis population
[13] = 5 mg/day, Week 4, idiopathic gastroparesis population
[14] = 5 mg/day, Week 8, diabetic gastroparesis population
[15] = 5 mg/day, Week 8, idiopathic gastroparesis population
[16] = 5 mg/day, Week 12, diabetic gastroparesis population
[17] = 5 mg/day, Week 12, idiopathic gastroparesis population
[18] = 15 mg/day, Week 4, diabetic gastroparesis population
[19] = 15 mg/day, Week 4, idiopathic gastroparesis population

1-isopropyl-2-oxo-1,2-dihydroquinoline-3-carboxylic acid {(1S,3R,5R)-8-[(R)-2-hydroxy-3-(methanesulfonyl-methyl-amino)propyl]-8-azabicyclo[3.2.1]oct-3-yl}amide [Velusetrag]
LS Proportion of positive responders; Summary Score 1 [1, 3]: 0.54 | LS Proportion of positive responders; Summary Score 2 [1, 3]: 0.57 | Responders, %; Summary Score 1 [1, 3]: (55.9) % | Responders, %; Summary Score 2 [1, 3]: (57.6) % | Responders, n; Summary Score 1 [1, 3]: 33 | Responders, n; Summary Score 2 [1, 3]: 34 | LS Proportion of positive responders; Summary Score 1 [1, 4]: 0.45 | LS Proportion of positive responders; Summary Score 2 [1, 4]: 0.43 | Responders, %; Summary Score 1 [1, 4]: (45.3) % | Responders, %; Summary Score 2 [1, 4]: (43.4) % | Responders, n; Summary Score 1 [1, 4]: 24 | Responders, n; Summary Score 2 [1, 4]: 23 | LS Proportion of positive responders; Summary Score 1 [1, 5]: 0.44 | LS Proportion of positive responders; Summary Score 2 [1, 5]: 0.31 | Responders, %; Summary Score 1 [1, 5]: (44.8) % | Responders, %; Summary Score 2 [1, 5]: (34.5) % | Responders, n; Summary Score 1 [1, 5]: 13 | Responders, n; Summary Score 2 [1, 5]: 10 | LS Proportion of positive responders; Summary Score 1 [1, 6]: 0.48 | LS Proportion of positive responders; Summary Score 2 [1, 6]: 0.58 | Responders, %; Summary Score 1 [1, 6]: (45.8) % | Responders, %; Summary Score 2 [1, 6]: (54.2) % | Responders, n; Summary Score 1 [1, 6]: 11 | Responders, n; Summary Score 2 [1, 6]: 13 | LS Proportion of positive responders; Summary Score 1 [1, 7]: 0.49 | LS Proportion of positive responders; Summary Score 2 [1, 7]: 0.51 | Responders, %; Summary Score 1 [1, 7]: (49.1) % | Responders, %; Summary Score 2 [1, 7]: (50.9) % | Responders, n; Summary Score 1 [1, 7]: 26 | Responders, n; Summary Score 2 [1, 7]: 27 | LS Proportion of positive responders; Summary Score 1 [1, 8]: 0.44 | LS Proportion of positive responders; Summary Score 2 [1, 8]: 0.45 | Responders, %; Summary Score 1 [1, 8]: (47.4) % | Responders, %; Summary Score 2 [1, 8]: (49.1) % | Responders, n; Summary Score 1 [1, 8]: 27 | Responders, n; Summary Score 2 [1, 8]: 28 | LS Proportion of positive responders; Summary Score 1 [1, 9]: 0.48 | LS Proportion of positive responders; Summary Score 2 [1, 9]: 0.45 | Responders, %; Summary Score 1 [1, 9]: (50.0) % | Responders, %; Summary Score 2 [1, 9]: (50.0) % | Responders, n; Summary Score 1 [1, 9]: 13 | Responders, n; Summary Score 2 [1, 9]: 13 | LS Proportion of positive responders; Summary Score 1 [1, 10]: 0.41 | LS Proportion of positive responders; Summary Score 2 [1, 10]: 0.45 | Responders, %; Summary Score 1 [1, 10]: (45.2) % | Responders, %; Summary Score 2 [1, 10]: (48.4) % | Responders, n; Summary Score 1 [1, 10]: 14 | Responders, n; Summary Score 2 [1, 10]: 15 | LS Proportion of positive responders; Summary Score 1 [1, 11]: 0.44 | LS Proportion of positive responders; Summary Score 2 [1, 11]: 0.47 | Responders, %; Summary Score 1 [1, 11]: (47.4) % | Responders, %; Summary Score 2 [1, 11]: (50.9) % | Responders, n; Summary Score 1 [1, 11]: 27 | Responders, n; Summary Score 2 [1, 11]: 29 | LS Mean Difference vs placebo, GRS Summary Score 2 (Factor 2) ([2]; 5 mg/day, Week 4, ITT): −0.1 points and −0.1 (0.12) points | LS Mean change from baseline, GRS Summary Score 2 (Factor 2) ([2]; 5 mg/day, Week 4, ITT): 0.8 (0.08) points | LS Mean Difference vs placebo, GRS Summary Score 2 (Factor 2) [2, 12]: −0.0 points | LS Mean change from baseline, GRS Summary Score 2 (Factor 2) [2, 12]: −0.8 points | LS Mean Difference vs placebo, GRS Summary Score 2 (Factor 2) [2, 13]: −0.3 (0.17) points | LS Mean change from baseline, GRS Summary Score 2 (Factor 2) [2, 13]: −0.9 (0.12) points | LS Mean Difference vs placebo, GRS Summary Score 2 (Factor 2) ([2]; 5 mg/day, Week 8, ITT): −0.1 (0.13) points | LS Mean change from baseline, GRS Summary Score 2 (Factor 2) ([2]; 5 mg/day, Week 8, ITT): −0.9 (0.09) points | LS Mean Difference vs placebo, GRS Summary Score 2 (Factor 2) [2, 14]: 0.0 points | LS Mean change from baseline, GRS Summary Score 2 (Factor 2) [2, 14]: −0.9 points | LS Mean Difference vs placebo, GRS Summary Score 2 (Factor 2) [2, 15]: −0.3 (0.18) points | LS Mean change from baseline, GRS Summary Score 2 (Factor 2) [2, 15]: −0.9 (0.13) points | LS Mean Difference vs placebo, GRS Summary Score 2 (Factor 2) ([2]; 5 mg/day, Week 12, ITT): −0.2 points and −0.2 (0.12) points | LS Mean change from baseline, GRS Summary Score 2 (Factor 2) ([2]; 5 mg/day, Week 12, ITT): −1.0 (0.08) points | LS Mean Difference vs placebo, GRS Summary Score 2 (Factor 2) [2, 16]: −0.1 points | LS Mean change from baseline, GRS Summary Score 2 (Factor 2) [2, 16]: −1.0 points | LS Mean Difference vs placebo, GRS Summary Score 2 (Factor 2) [2, 17]: −0.3 (0.17) points | LS Mean change from baseline, GRS Summary Score 2 (Factor 2) [2, 17]: −1.0 (0.12) points | LS Mean Difference vs placebo, GRS Summary Score 2 (Factor 2) ([2]; 15 mg/day, Week 4, ITT): −0.0 (0.12) points | LS Mean change from baseline, GRS Summary Score 2 (Factor 2) ([2]; 15 mg/day, Week 4, ITT): −0.7 (0.09) points | LS Mean Difference vs placebo, GRS Summary Score 2 (Factor 2) [2, 18]: 0.1 points | LS Mean change from baseline, GRS Summary Score 2 (Factor 2) [2, 18]: −0.7 points | LS Mean Difference vs placebo, GRS Summary Score 2 (Factor 2) [2, 19]: −0.2 (0.18) points | LS Mean change from baseline, GRS Summary Score 2 (Factor 2) [2, 19]: −0.8 (0.13) points | LS Mean Difference vs placebo, GRS Summary Score 2 (Factor 2) ([2]; 15 mg/day, Week 8, ITT): −0.0 (0.13) points

Reference: patent US11642339B2 (THERAVANCE BIOPHARMA R&D IP, LLC, priority 2017, dated 2023)
